Laboratory results as given in patent publication US6491922B1, “Methods and compounds for treating autoimmune and vascular disease” (Cornell Research Foundation, Inc., priority 1996, dated 2002).
Where “and” joins values, the source holds several entries; their conditions need not be identical. Identical values can stand only once. Entries after “also recorded” stand apart in the source; their conditions may differ. Like-named read-outs stand apart in the source and are kept apart here.

How the values were obtained:
[1] = system: murine nitric oxide synthase activity; experiment: Nitrite production (Griess assay) in RAW 264.7 cells; format: cell-based
Procedure: RAW 264.7 cells were treated with LPG 1 μM and simultaneously stimulated with endotoxin and mIFN-γ. Supernatants from each treatment condition were removed at 24, 48, and 72 hours, and nitrite production was measured by the Griess assay.
To determine whether LPG can alter NOS expression, a well characterized murine macrophage cell line, RAW 264.7 cells, were used to measure NOS activity. […] Because macrophages encounter LPG usually in the context of entry of the parasite, it was examined whether Leishmania promastigotes, upon entry into macrophages, transfer LPG onto the macrophage cell surfaces and inhibit nitrite production. L. donovani prosmastigotes (“Ld3”) within 15 minutes of attachment to human monocytes, THP-1 cells, or murine peritoneal macrcophages transferred LPG onto the surface of the macrophages, as determined by a monoclonal antibody against LPG and indirect fluorescent microscopy. Two hours after entering murine peritoneal macrophages, Ld3 promastigoes suppressed endotoxin- and IFN-γ induction of NOS activity; the inhibition was parasite dose dependent.

E-selectin = experiment: Endotoxin-induced E-selectin expression on endothelial cells (FACS); format: cell-based, human; settings: LPG pretreatment 1 h
Procedure: Endothelial cells pretreated with LPG at indicated amounts for 1 h were subsequently challenged with endotoxin. Washed cells incubated with monoclonal antibody specific for E-selectin or ICAM-1 were counter stained with fluorescein labeled anti-murine antibody, fixed and analyzed by FACS.

IL-1β promoter = format: cell-based, human; settings: for suppression of endotoxin-induced CAT activity: LPG 2 μM 1 h; for suppression of LPS-induced CAT activity: 2 μM LPG 2 h
endothelial cells = experiment: Endothelial adhesion to monocytes (MM6) assay
Procedure: Endothelial cell were isolated from human umbilical veins by an established method as described. […] In all experiments, 2-4 passages of subcultured endothelial cells were used and were grown on fibronectin-precoated 96-well plates for 2-3 days prior to use.
On the day of the experiment, endothelial cells were treated with endotoxin (E. coli, J5, 10 ng/ml) for 4 h. MM6 (1×10^5 cells) were subsequently added to the endotoxin-stimulated endothelial cells. Monocyte adhesion was performed for 20 min at 37° C. Unbound MM6 cells were removed by washing (3×). Adhesion of MM6 onto endothelium was quantitated by counting the bound MM6 cells under a microscope. […] The values of triplicates were averaged, and variations between triplicates were <5%. […] For experiments to examine if LPG could inhibit endotoxin-mediated monocyte adhesion, the endothelial cells were first preincubated with LPG (2 μM) for 1-2 h at 37° C. prior to the addition of endotoxin.

IL-1β transcription = experiment: In vitro transcription by nuclear run-off assay, IL-1β; format: cell-based, human; settings: THP-1 nuclei; 2 μM LPG 2 h, LPS 2 μg/ml 4 h
Procedure: Nuclei isolation. Procedures for isolating nuclei have been described in Ausubel, F. M. et al., Current Protocols in Molecular Biology 1(4.9):4.9.1-4.9.14 and 1(4.10):4.10.1-4.10.11 (1993), hereby incorporated by reference. THP-1 cells (5×10^7 cells) treated with medium or medium containing 2 μM LPG for 2 h were stimulated or not stimulated with 2 μg/ml LPS for 4 h, at 37° C. in 5% CO2. Cells were harvested by gentle scraping, washed twice with 5 ml ice cold PBS and centrifugation at 350×g for 5 min. After removal of supernatant, cells were gently loosen by 5 sec vortex and 4 ml NP-40 buffer was added by continuous vortex. The NP-40 buffer is composed of 10 mM Tris HCl (pH 7.4), 10 mM NaCl, 3 mM MgCl2, and 0.5% noridet P-40 (NP-40). The cell suspension was further vortexed at half maximal speed for 10 sec and placed on ice for 5 min. Cells were visually inspected to ascertain the separation of nuclei from cytophasmic material. Nuclei were wash once more with 4 ml NP-40 buffer by centrifugation at 350×g, 5 min. The pelleted nuclei were resuspended with 200 μl glycerol buffer and stored in liquid nitrogen until nuclear run-off assay. Glycerol buffer is composed of 50 mM Tris Hcl (pH 8.3), 40% (v/v) glycerol, 5 mM MgCl2, 0.1 mM ethylenediaminetetraacetic acid (EDTA).
In vitro transcription. […]

## lipophosphoglycan [LPG]
[1]; RAW 264.7, LPG 1 μM simultaneous with endotoxin and IFN-γ
  effect on nitrite production: inhibited the enhancement of nitrite production
[1]; higher amounts of endotoxin and IFN-γ
  reversal of the inhibition by higher amounts of agonists: could not reverse
E-selectin
  effect on endotoxin-mediated expression of E-selectin: strongly suppressed; also recorded: blockage or suppression
IL-1β promoter; IL-1β promoter deleted to −57
  LPG's inhibitory activity on LPS-induced CAT activity: completely abrogated; also recorded: no LPG inhibitory activity
IL-1β promoter; IL-1β promoter truncated to −131
  suppression of CAT activity: 7%+1% and 7%
IL-1β promoter; deletional mutant X2-HT-CAT (−3757 to −2729 linked to −131 to +11)
  suppression of endotoxin-induced CAT activity: 8%+4% and 8%
IL-1β promoter; full-length −3757 to +11 construct (XT-CAT), n=5
  suppression of endotoxin-induced CAT activity: 50%+5%
IL-1β promoter; medium with 2.5% or 5% FBS, LPG 2 μM 2 h, LPS 2 μg/ml
  effect on endotoxin-activation of IL-1β promoter activity in presence of serum: suppresses; also recorded: similar
IL-1β promoter; plasmid with −310/+15 promoter sequence, LPS 2 μg/ml
  suppression of LPS-induced CAT activity: approximately 40%
IL-1β promoter; plasmid with −680/+15 promoter sequence, LPS 2 μg/ml
  suppression of LPS-induced CAT activity: approximately 40%
IL-1β promoter; plasmid with −1110/+15 promoter sequence, LPS 2 μg/ml
  suppression of LPS-induced CAT activity: approximately 40%
Endothelial cells; 2 μM LPG pretreatment, endotoxin 10 ng/ml 4 h
  inhibition of endotoxin-mediated monocyte adhesion (dose-dependent 0.01 μM to 2 μM): completely inhibiting
Endothelial cells; IL-1β 100 U/ml, n=4
  effect on IL-1β-mediated endothelial cell adhesion: lack of LPG inhibitory activity
Endothelial cells; LPG 2 μM, 2 h pretreatment, endotoxin 10 ng/ml 4 h
  inhibition of endotoxin-mediated monocyte adhesion (time-dependent): completely abrogating
Endothelial cells; LPG plus TNF-α, TNF-α alone 1,750±100, basal 100±50, n=6
  TNF-α-mediated endothelial adhesion to monocytes: 1,650±130 cell/mm^2
Endothelial cells; endothelial cells
  minimal pretreatment time required for inhibition of endotoxin-mediated monocyte adhesion: 15 to 30 min
Endothelial cells; n=6
  effect on TNF-α-mediated endothelial adhesion to monocytes: did not affect
Endothelial cells; read-out: half-maximal inhibitory concentration, endotoxin-mediated monocyte adhesion
  IC50: ~600 nM
IL-1β transcription
  inhibition of LPS induced IL-1β mRNA transcription: approximately 65%
